In US10544112B2, “Identification of ebsulfur analogues with broad-spectrum antifungal activity” (priority 2017, dated 2020):
≈ marks a conversion by molar mass, not a printed value.

How the values were obtained:
Candida strains (A-J) = test: Antifungal MIC, summary over panel of Candida strains; format: cell-based; details: Candida strains A-J
Method: (§1) Fungal MIC determination experiments were performed using untreated 96-well plates (Corning). Cells were counted either by using a hemocytometer (Hausser Scientific, Horsham, Pa., USA) or by measuring optical density at attenuance of 600 nm (OD600) by using a Genesys 20 spectrophotometer (Thermo Scientific, Waltham, Mass., USA). Spectrophotometric and colorimetric measurements in 96-well plates were performed using a SpectraMax M5 spectrometer (Molecular Devices, Sunnyvale, Calif., USA).
(§2) Yeast strains Candida albicans ATCC 10231 (strain A), C. albicans ATCC 64124 (strain B), and C. albicans ATCC MYA-2876(S) (strain C) were kindly provided by Dr. Jon Y. Takemoto (Utah State University, Logan, UT, USA). C. albicans ATCC MYA-90819(R) (strain D), C. albicans ATCC MYA-2310(S) (strain E), C. albicans ATCC 1237(R) (strain F), C. albicans ATCC MYA-1003(R) (strain G), Candida glabrata ATCC 2001 (strain H), Candida krusei ATCC 6258 (strain I), and Candida parapsilosis ATCC 22019 (strain J) were obtained from the American Type Culture Collection (ATCC, Manassas, Va., USA). The (S) and (R) indicate that ATCC reports these strains to be susceptible (S) and resistant (R) to ITC and FLC. The filamentous fungal strains Aspergillus flavus ATCC MYA-3631 (strain K), and Aspergillus terreus ATCC MYA-3633 (strain M) were also obtained from the American Type Culture Collection (ATCC, Manassas, Va., USA). Aspergillus nidulans ATCC 38163 (strain L) was kindly provided by Dr. Jon S. Thorson (University of Kentucky, Lexington, Ky., USA), respectively. Yeast strains were cultured at 35° C. Filamentous fungal strains were cultured at 25° C. and the spores were harvested. All fungal strains were cultured in RPMI 1640 medium (catalog # R6504, Sigma-Aldrich Chemical Co., St. Louis, Mo.) buffered to pH 7.0 with 0.165 M morpholinepropanesulfonic acid (MOPS) buffer (Sigma-Aldrich Chemical Co.).
(§3) The MIC values against fungal strains were determined based on a previously published protocol. MIC values for ebsulfur (2a) analogues against fungal cells were evaluated in 96-well plates as described in the CLSI document M27-A3 with minor modifications. […] Therefore, potato dextrose broth (PDB) was used to grow the yeast inocula of all strains tested, which were later diluted in RPMI 1640 medium to perform determination of MIC values. […] The tested compounds (10 mg/mL) were diluted to the working stocks (500 μg/mL) by addition of DMSO. Two-fold serial dilution of the working stocks was prepared by addition of RPMI 1640 medium (100 μL) and cell suspension (100 μL) to 96-well microtiter plate to achieve final drug and inoculum concentrations ranging from 12.5-0.02 μg/mL and 5×10^3 CFU/mL, respectively. Plates were incubated for 48 h at 35° C. […]

[1] = tested on: C. albicans ATCC MYA-2310(S) (strain E); test: Antifungal MIC determination (CLSI M27-A3, 96-well); format: cell-based, Candida albicans; details: strain E; compounds 1-4n and AmB; 48 h, RPMI 1640
Method: as §1, §2, §3

[2] = tested on: C. albicans ATCC MYA-2876(S) (strain C); test: as above; format: cell-based, Candida albicans; details: strain C; compounds 1-4n and AmB; 48 h, RPMI 1640
Method: as §1, §2, §3

[3] = tested on: Aspergillus flavus ATCC MYA-3631 (strain K); test: Antifungal MIC determination, filamentous fungi spores; format: cell-based; details: all compounds
Method: as §1, §2
(§4) The MIC values against fungal strains were determined based on a previously published protocol. MIC values for ebsulfur (2a) analogues against fungal cells were evaluated in 96-well plates as described in the CLSI document M27-A3 with minor modifications. […] Therefore, potato dextrose broth (PDB) was used to grow the yeast inocula of all strains tested, which were later diluted in RPMI 1640 medium to perform determination of MIC values. […] The tested compounds (10 mg/mL) were diluted to the working stocks (500 μg/mL) by addition of DMSO. Two-fold serial dilution of the working stocks was prepared by addition of RPMI 1640 medium (100 μL) and cell suspension (100 μL) to 96-well microtiter plate to achieve final drug and inoculum concentrations ranging from 12.5-0.02 μg/mL and 5×10^3 CFU/mL, respectively. Plates were incubated for 48 h at 35° C.
(§5) MIC assays for the spore-forming filamentous fungi, such as strain A. flavus ATCC MYA-3631 (strain K), were performed in a similar fashion. The filamentous fungal strains were first cultured at 25° C. on potato dextrose agar (PDA) plates for 3-5 days or until confluent. Spores were collected by washing the surface of the agar plates with dd H2O (5 mL) and then isolated the spores by gravity filtration (the spores are H2O soluble). […] Researchers working with spores should wear a facemask to prevent spore inhalation.

[4] = tested on: Aspergillus terreus ATCC MYA-3633 (strain M); test: as above; format: cell-based; details: strain M; all compounds; spores
Method: as §1, §2, §4, §5

[5] = tested on: Aspergillus nidulans ATCC 38163 (strain L); test: as above; format: cell-based; details: strain L; spores
Method: as §1, §2, §4, §5

[6] = tested on: Candida parapsilosis ATCC 22019 (strain J); test: Antifungal MIC determination (CLSI M27-A3, 96-well); format: cell-based; details: strain J; compounds 1-4n and AmB; 48 h, RPMI 1640
Method: as §1, §2, §3

[7] = tested on: Candida krusei ATCC 6258 (strain I); test: as above; format: cell-based; details: strain I; compounds 1-4n and AmB; 48 h, RPMI 1640
Method: as §1, §2, §3

[8] = tested on: Candida albicans ATCC 10231 (strain A); test: as above; format: cell-based; details: strain A; compounds 1-4n and AmB; 48 h, RPMI 1640
Method: as §1, §2, §3

[9] = tested on: Candida glabrata ATCC 2001 (strain H); test: as above; format: cell-based; details: strain H; compounds 1-4n and AmB; 48 h, RPMI 1640
Method: as §1, §2, §3

[10] = tested on: C. albicans ATCC MYA-1003(R) (strain G); test: microbe, parasite or virus in culture; format: cell-based, Candida albicans; details: strain G; compounds 1-4n and AmB; 48 h, RPMI 1640
Method: as §1, §2, §3

[11] = tested on: C. albicans ATCC 90819(R) (strain D); test: microbe, parasite or virus in culture; format: cell-based, Candida albicans; details: strain D; compounds 1-4n and AmB; 48 h, RPMI 1640
Method: as §1, §2, §3

[12] = tested on: C. albicans ATCC 64124 (strain B); test: microbe, parasite or virus in culture; format: cell-based, Candida albicans; details: strain B; compounds 1-4n and AmB; 48 h, RPMI 1640
Method: as §1, §2, §3

[13] = tested on: C. albicans ATCC MYA-1237(R) (strain F); test: microbe, parasite or virus in culture; format: cell-based, Candida albicans; details: strain F; compounds 1-4n and AmB; 48 h, RPMI 1640
Method: as §1, §2, §3

SMILES	MIC values against Candida strains, range (Candida strains (A-J)) [µg/mL]	MIC-0 [1] [µg/mL]	MIC-0 [2] [µg/mL]	MIC-0 [3] [µg/mL]	MIC-0 [4] [µg/mL]	MIC-0 [5] [µg/mL]	MIC-0 [6] [µg/mL]	MIC-0 [7] [µg/mL]	MIC-0 [8] [µg/mL]	MIC-0 [9] [µg/mL]	MIC-0 [10] [µg/mL]	MIC-0 [11] [µg/mL]	MIC-0 [12] [µg/mL]	MIC-0 [13] [µg/mL]
O=c1c2ccccc2sn1-c1cccc(Br)c1 [Compound 2g]	> 12.5	>12.5	12.5 (≈ 40.8 µM)	12.5 (≈ 40.8 µM)	12.5 (≈ 40.8 µM)	12.5 (≈ 40.8 µM)	12.5 (≈ 40.8 µM)	12.5 (≈ 40.8 µM)	>12.5	12.5 (≈ 40.8 µM)	12.5 (≈ 40.8 µM)	12.5 (≈ 40.8 µM)	12.5 (≈ 40.8 µM)	12.5 (≈ 40.8 µM)
O=c1c2ccccc2sn1C1CCCC1 [Compound 3k]	0.39 to 1.56	0.39 (≈ 1.78 µM)	0.78 (≈ 3.56 µM)	0.20 (≈ 0.912 µM)	0.10 (≈ 0.456 µM)	0.10 (≈ 0.456 µM)	1.56 (≈ 7.11 µM)	0.39 (≈ 1.78 µM)	0.39 (≈ 1.78 µM)	0.78 (≈ 3.56 µM)	0.78 (≈ 3.56 µM)	0.39 (≈ 1.78 µM)	1.56 (≈ 7.11 µM)	0.39 (≈ 1.78 µM)
O=c1c2ccccc2sn1C1CCCCC1 [Compound 3l]	0.78 to 3.13	1.56 (≈ 6.69 µM)	3.13 (≈ 13.4 µM)	0.20 (≈ 0.857 µM)	0.20 (≈ 0.857 µM)	0.20 (≈ 0.857 µM)	1.56 (≈ 6.69 µM)	0.78 (≈ 3.34 µM)	0.78 (≈ 3.34 µM)	1.56 (≈ 6.69 µM)	1.56 (≈ 6.69 µM)	0.78 (≈ 3.34 µM)	1.56 (≈ 6.69 µM)	0.78 (≈ 3.34 µM)
O=c1c2ccccc2sn1-c1ccc(Cl)cn1 [Compound 2n]	> 12.5	12.5 (≈ 47.6 µM)	12.5 (≈ 47.6 µM)	>12.5	>12.5	>12.5	>12.5	>12.5	12.5 (≈ 47.6 µM)	>12.5	12.5 (≈ 47.6 µM)	>12.5	12.5 (≈ 47.6 µM)	12.5 (≈ 47.6 µM)
C#Cc1ccc(-n2sc3ccccc3c2=O)cc1 [Compound 2f]	> 12.5	>12.5	>12.5	12.5 (≈ 49.7 µM)	12.5 (≈ 49.7 µM)	12.5 (≈ 49.7 µM)	12.5 (≈ 49.7 µM)	6.25 (≈ 24.9 µM)	12.5 (≈ 49.7 µM)	6.25 (≈ 24.9 µM)	12.5 (≈ 49.7 µM)	12.5 (≈ 49.7 µM)	12.5 (≈ 49.7 µM)	12.5 (≈ 49.7 µM)
O=c1c2ccccc2sn1CCCc1ccccc1 [Compound 3j]	1.56 to 62.5	6.25 (≈ 23.2 µM)	6.25 (≈ 23.2 µM)	0.78 (≈ 2.9 µM)	0.20 (≈ 0.742 µM)	0.20 (≈ 0.742 µM)	6.25 (≈ 23.2 µM)	1.56 (≈ 5.79 µM)	6.25 (≈ 23.2 µM)	1.56 (≈ 5.79 µM)	6.25 (≈ 23.2 µM)	3.13 (≈ 11.6 µM)	3.13 (≈ 11.6 µM)	6.25 (≈ 23.2 µM)
CCCCCCCCCCCCn1sc2ccccc2c1=O [Compound 3d]	> 12.5	>12.5	>12.5	>12.5	>12.5	>12.5	>12.5	>12.5	>12.5	12.5 (≈ 39.1 µM)	>12.5	>12.5	>12.5	>12.5
